According to US20050010126A1, “Assessment of concentration of inhalational compounds in the brain” (priority 2001, published 2005):
Each block holds one molecule with its values, some of them ahead of it.

How the values were obtained:
[1] = alveolar membrane factor M of an inhalational compound; assay type: in vivo, patients
Excerpt: As the gas penetrates the alveolar membrane and enters the pulmonary capillary blood flow, it must follow the Fick's principal. See Katzung, R. G. (1998) Basic principles, introduction in basic and clinical pharmacology Appleton-Lange p 5. The Fick's principal defines the rate of penetrating the alveolar membrane as: DAk/x (Ci-Cb') D is a diffusion constant, A is the area of the membrane (proportional to the pulmonary capillary flow or cardiac output), k is a solubility coefficient, x is the thickness of the membrane, Ci is an inspired compound concentration, and Cb' is the mixed venous compound concentration. Assuming that the pulmonary capillary flow or the cardiac output is constant, then, for a given inhalational compound, DAk/x is a constant. This constant DAk/x is defined as a membrane factor, M, which varies from one inhalational compound to another. […] Since the membrane factor may vary slightly among patients, a more precise determination of the membrane factor can be performed as described below. The rate of penetrating the alveolar membrane DAk/x (Ci-Cb') can be expressed as: M(Ci-Cb'), in which M is DAk/x. When measuring an uptake of an inhalational compound-containing gas in each breathing cycle, the rate of the uptake is a function of a difference between the inspired concentration (Ci) and the expired concentration (Ce). The difference can be expressed as: Ci-Ce. Ci-Ce. and M (Ci-Cb') both represent the rate of uptake of an inhalational compound: Ci-Ce=M(Ci-Cb'), or M=(Ci-Ce)/(Ci-Cb'). During the initial introduction of an inhalational compound (before the FRC is filled with the gas), the membrane factor M for an individual can be approximated by assuming Cb'=0: M=(Ci-Ce)/Ci=1-(Ce/Ci).

[2] = assessment of mixed venous and brain anesthetic concentration from inspired and expired concentrations
Excerpt: At the stage of anesthesia (after the FRC is filled with the gas), the equation: Ci′−Ce′=M (Ci′−Cb′) can be used to calculate the compound concentration in the mixed venous blood (Cb′), in which Ci′ and Cb′ are the inspired compound concentration and the expired compound concentration, respectively: Cb′=[Ci′(M−1)+Ce′]/M.
As discussed above, Cb=(A+J)/2 and (A+J)/2=(Ce′+2Cb′)/3 or (Ce′+3Cb′)/4, the compound concentration in the brain (Cb) can be expressed as: Cb=(Ce′+2Cb′)/3 or (Ce+3Cb′)/4.
Thus, with measurements of the expired compound concentration (Ce′) and the mixed venous compound concentration (Cb′), the compound concentration in the brain (Cb) can be readily obtained. Below are two examples of how to assess brain anesthetic concentrations by this method.
A tube is connected to the circle system of an anesthesia machine consisting of gas flowmeters, a compound vaporizer, supply of oxygen, air and nitrous oxide gas, and a ventilator (e.g., Detex-Ohmeda, Finland, or Drager, Germany). The gas is then delivered to the patient by the anesthesia machine. […] Near the connection between the circle system and the tube, a side arm sampling site is linked to a gas monitoring equipment (e.g., an infra-red monitor or a mass spectrometer). Typically, a sampling speed is 200 mL/min. […] A more precise determination of M is performed at the end of 3 min, when 85-95% of the FRC has been filled with the gas.

[3] = general value for the compound, for most patients

- membrane factor M (DAk/x) ([1]; human, in vivo): 0.5
SMILES: FC(F)(F)C(Cl)Br (stereo not drawn) [halothane]

- membrane factor M (DAk/x) ([1]; human, in vivo): 0.4
SMILES: FC(F)OC(Cl)C(F)(F)F (stereo not drawn) [isoflurane]

The next lines start with the molecule.

SMILES: FC(F)OC(F)C(F)(F)F (stereo not drawn) [desflurane]
- patient's membrane factor M = (Ci-Ce)/Ci ([1]; desflurane, inspired 6%, expired 4.8% at 3-4 minutes (85-95% of FRC filled)): 0.2
- membrane factor M (DAk/x) [1, 3]: 0.2
- concentration in the brain (Cb) = (Ce'+3Cb')/4 ([2]; desflurane, inspired 6.2%, expired 5.4%, M 0.2): 3.0%

SMILES: COC(F)(F)C(Cl)Cl [methoxyflurane]
- membrane factor M (DAk/x) [1, 3]: 0.8

SMILES: FCOC(C(F)(F)F)C(F)(F)F [sevoflurane]
- patient's membrane factor M = (Ci-Ce)/Ci ([1]; human, in vivo): 0.214
- brain concentration (Cb) = (Ce'+2Cb')/3 ([2]; human, in vivo, 30 min): 1.77%
- concentration in the mixed venous blood (Cb') ([2]; human, in vivo, 30 min): 1.16%
